This experiment is described as follows: Relaxation dynamics of hyperpolarized [1-13C]pyruvate (build-up time Tb and T1). The conditions noted are these: 0.4 μT. An excerpt: In addition, the relaxation dynamics of the [1-^13C]pyruvate were also studied.
In addition, relaxation dynamics at earth field and 1.8 T are about the same as a non-fluorinated SABRE catalyst T1=28.9±1.6 s and 66.5±7 s, respectively.

Structures are written as SMILES.

`CC(=O)C(=O)O` [[1-^13C]pyruvate, sodium [1-^13C]pyruvate]: the “total P13C (bound+free) build-up time Tb” value (Example 7: Example 4 catalyst, DMSO, methanol) is 6.6 ± 3.0 s; the “total P13C (bound+free) build-up time Tb” value (Example 25: Example 4 catalyst, DMSO, NFBME/MeOD fluorous mixture) amounted to 3.0 ± 0.8 s; the “total P13C (bound+free) build-up time Tb” value (Example 31: Example 4 catalyst, DMSO, CD3OD/Novec 7100) turned out to be 3.8 ± 0.6 s; the “total P13C (bound+free) build-up time Tb” value (Example 32: Example 4 catalyst, PTMSO, CD3OD/Novec 7100) was found to be 8.9 ± 2.5 s.

The values above are taken from patent publication US20240216900A1, “SABRE CATALYSTS CONTAINING FLUORINATED CARBON CHAINS FOR DELIVERY OF METAL-FREE MRI CONTRAST AGENTS” (The U.S.A., as represented by the Secretary, Department of …, priority 2022, published 2024).
